{"source": "patent US20240415801A1", "about": "“Methods and Compositions for Treating Fibroids” (Lundquist Institute for Biomedical Innovation at …, priority 2023, published 2024)", "type_in_all_cases": "in vivo, SCID/Beige mice", "key": {"fibroid xenografts [1]": {"tested_on": "fibroid xenografts", "experiment": "Immunohistochemistry and Masson's trichrome staining of xenografts (Example 1)", "method": "Tissues were fixed in 4% paraformaldehyde and subsequently embedded in paraffin, and 5-micron sections were cut and mounted onto glass slides. Staining procedures, including Masson's trichrome stain (HT15-1 KT, Sigma-Aldrich), and immunohistochemistry, were conducted as previously described. Primary antibodies utilized in this study included rabbit anti-Ki67 (dilution 1:250, 27309-1-AP, Proteintech Group, Inc, Rosemont, IL, USA), rabbit anti-cleaved caspase-3 (dilution 1:50, #9664, Cell Signaling Technology, Danvers, MA, USA), rabbit anti-CCND1 (dilution 1:50, #55506, Cell Signaling Technology), and mouse anti-E2F1 (dilution 1:50, sc-251, Santa Cruz Biotechnology, Inc., Dallas, TX, USA)."}, "[2]": {"experiment": "Safety test, plasma chemistry panel (Example 2)", "details": "5 mg/kg i.p.", "method": "In order to determine if Bay 11-7082 administration was safe, the plasma collected from the mice was tested after 8 weeks of treatment with vehicle or Bay 11-7082. The plasma (100 μL) was pipetted into the Comprehensive Diagnostic Profile Rotor (#500-1038, Abaxis, Union City, CA, USA) and the values of glucose, creatinine, BUN, phosphorus, sodium, albumin, alkaline phosphatase, serum glutamic pyruvic transaminase (SGPT; ALT), total protein, globulin, total bilirubin and amylase were analyzed using VetScan VS2 chemistry analyzer (Abaxis, Union City, CA, USA)."}, "fibroid xenografts [3]": {"tested_on": "fibroid xenografts", "experiment": "Total collagen enzyme-linked immunosorbent assay of xenografts (Example 1)", "details": "20 mg/kg daily, 8 weeks, vs controls", "method": "The total collagen content in xenografts was assessed in duplicate using the QuickZyme Total Collagen Assay Kit (QuickZyme Biosciences, Leiden, Netherlands), following the manufacturer's instructions as previously described. Absorbance readings were taken spectrophotometrically at a wavelength of 570 nm, and concentrations were determined by comparing sample optical density values to a standard curve. Total collagen levels were quantified as μg/ml of protein and reported as fold change relative to the vehicle group."}}}
{"smiles": "Cc1ccc(S(=O)(=O)/C=C/C#N)cc1", "note": "[Bay 11-7082]", "values": [{"measurement": "expression of cell cycle markers CCND1 and E2F1 (IHC)", "setting": "fibroid xenografts [1]; 20 mg/kg daily, 8 weeks", "value": "decreased expression"}, {"measurement": "expression of collagens (Masson's trichrome staining)", "setting": "fibroid xenografts [1]; 20 mg/kg daily, 8 weeks", "value": "significant decrease"}, {"measurement": "expression of proliferation marker Ki67 (IHC)", "setting": "fibroid xenografts [1]; 20 mg/kg daily, 8 weeks", "value": "significant reduction"}, {"measurement": "smooth muscle content (Masson's trichrome staining)", "setting": "fibroid xenografts [1]; 20 mg/kg daily, 8 weeks", "value": "no significant differences"}, {"measurement": "Cleaved caspase 3 staining (IHC)", "setting": "fibroid xenografts [1]; drug versus vehicle", "value": "no significant difference"}, {"measurement": "adverse effects in blood plasma chemistry panel (glucose, kidney function, electrolytes, liver function, pancreatic amylase)", "setting": "[2]; 8 weeks", "value": "no adverse effects"}, {"measurement": "Albumin (mean ± SEM)", "setting": "[2]; plasma after 8 weeks", "value": "3.5 ± 0.14", "unit": "g/dL"}, {"measurement": "Alkaline phosphatase (mean ± SEM)", "setting": "[2]; plasma after 8 weeks", "value": "91.9 ± 20.05", "unit": "U/l"}, {"measurement": "Amylase (mean ± SEM)", "setting": "[2]; plasma after 8 weeks", "value": "643.0 ± 36.82", "unit": "U/l"}, {"measurement": "BUN (mean ± SEM)", "setting": "[2]; plasma after 8 weeks", "value": "27.1 ± 5.75", "unit": "mg/dL"}, {"measurement": "Creatinine (mean ± SEM)", "setting": "[2]; plasma after 8 weeks", "value": "0.4 ± 0.03", "unit": "mg/dL"}, {"measurement": "Globulin (mean ± SEM)", "setting": "[2]; plasma after 8 weeks", "value": "1.1 ± 0.24", "unit": "g/dL"}, {"measurement": "Glucose (mean ± SEM)", "setting": "[2]; plasma after 8 weeks", "value": "261.0 ± 14.63", "unit": "mg/dL"}, {"measurement": "Phosphorus (mean ± SEM)", "setting": "[2]; plasma after 8 weeks", "value": "10.1 ± 0.53", "unit": "mg/dL"}, {"measurement": "SGPT (ALT) (mean ± SEM)", "setting": "[2]; plasma after 8 weeks", "value": "54.5 ± 8.71", "unit": "U/l"}, {"measurement": "Sodium (mean ± SEM)", "setting": "[2]; plasma after 8 weeks", "value": "155.3 ± 1.35", "unit": "mEq/l"}, {"measurement": "Total bilirubin (mean ± SEM)", "setting": "[2]; plasma after 8 weeks", "value": "0.3 ± 0.04", "unit": "mg/dL"}, {"measurement": "Total protein (mean ± SEM)", "setting": "[2]; plasma after 8 weeks", "value": "4.6 ± 0.16", "unit": "g/dL"}, {"measurement": "total collagen protein levels", "setting": "fibroid xenografts [3]", "value": "significant decrease"}]}
